Test results from ChEMBL document CHEMBL3046274, “Toxicity of imidacloprid to developmental stages of Rhynchophorus ferrugineus (Curculionidae: Coleoptera): Laboratory and field tests” (Crop Prot, 2006).
Active and inactive are the calls of the source. The rule behind the calls is not given here.

Columns and labels:
[1] = test system: Rhynchophorus ferrugineus; experiment: Pesticidal activity against Rhynchophorus ferrugineus (red palm weevil) cocoon assessed as mortality at 1 ppm administered by dipping for 3 min measured at 18 hr post-treatment relative to control; type: functional
[2] = test system: Rhynchophorus ferrugineus; experiment: Pesticidal activity against Rhynchophorus ferrugineus (red palm weevil) larvae assessed as mortality at 4 ppm, po at 48 hr post-treatment relative to control; type: functional
[3] = test system: Rhynchophorus ferrugineus; experiment: Pesticidal activity against Rhynchophorus ferrugineus (red palm weevil) cocoon assessed as mortality at 0.5 ppm administered by dipping for 3 min measured at 24 hr post-treatment relative to control; type: functional
[4] = test system: Rhynchophorus ferrugineus; experiment: Pesticidal activity against Rhynchophorus ferrugineus (red palm weevil) cocoon assessed as mortality at 20 ppm administered by dipping for 3 min measured at 24 hr post-treatment relative to control; type: functional
[5] = test system: Rhynchophorus ferrugineus; experiment: Pesticidal activity against Rhynchophorus ferrugineus (red palm weevil) cocoon assessed as mortality at 4 ppm administered by dipping for 3 min measured at 18 hr post-treatment relative to control; type: functional
[6] = test system: Rhynchophorus ferrugineus; experiment: Pesticidal activity against Rhynchophorus ferrugineus (red palm weevil) larvae assessed as mortality at 0.5 ppm, po at 90 hr post-treatment relative to control; type: functional
[7] = test system: Rhynchophorus ferrugineus; experiment: Pesticidal activity against Rhynchophorus ferrugineus (red palm weevil) larvae assessed as mortality at 0.5 ppm, po at 72 hr post-treatment relative to control; type: functional
[8] = test system: Rhynchophorus ferrugineus; experiment: Pesticidal activity against Rhynchophorus ferrugineus (red palm weevil) larvae infested date palm tree assessed as mortality of collected live stage at 20 ml/4l of water applied through soil-drench irrigation measured at 3 weeks post-treatment within 48 hr after emergence relative to control; type: functional
[9] = test system: Rhynchophorus ferrugineus; experiment: Pesticidal activity against Rhynchophorus ferrugineus (red palm weevil) larvae infested date palm tree assessed as mortality at 20 ml/4l of water applied through soil-drench irrigation measured after 3 weeks relative to control; type: functional
[10] = test system: Rhynchophorus ferrugineus; experiment: Pesticidal activity against Rhynchophorus ferrugineus (red palm weevil) larvae infested date palm trees assessed as mortality at 2.5 ml/l applied through soil-drench irrigation 1 week after infestation measured on day 30 post-treatment relative to control; type: functional
[11] = test system: Rhynchophorus ferrugineus; experiment: Pesticidal activity against Rhynchophorus ferrugineus (red palm weevil) larvae infested date palm trees assessed as mortality at 2.5 ml/l applied through soil-drench irrigation 1 week after infestation measured on day 20 post-treatment relative to control; type: functional
[12] = test system: Rhynchophorus ferrugineus; experiment: Pesticidal activity against adult Rhynchophorus ferrugineus (red palm weevil) assessed as mortality at 500 ppm administered topically at 36 hr post-treatment; type: functional
[13] = test system: Rhynchophorus ferrugineus; experiment: Pesticidal activity against Rhynchophorus ferrugineus (red palm weevil) cocoon assessed as mortality at 2 ppm administered by dipping for 3 min measured at 114 hr post-treatment relative to control; type: functional
[14] = test system: Rhynchophorus ferrugineus; experiment: Pesticidal activity against Rhynchophorus ferrugineus (red palm weevil) cocoon assessed as mortality at 4 ppm administered by dipping for 3 min measured at 114 hr post-treatment relative to control; type: functional
[15] = test system: Rhynchophorus ferrugineus; experiment: Contact toxicity against Rhynchophorus ferrugineus (red palm weevil) adults assessed as time required for 100% mortality at 2.5 ml/l for 5 min; type: functional
[16] = test system: Rhynchophorus ferrugineus; experiment: Contact toxicity against Rhynchophorus ferrugineus (red palm weevil) adults assessed as time required for 100% reversible knockdown at 2.5 ml/l for 5 min; type: functional
[17] = test system: Rhynchophorus ferrugineus; experiment: Contact toxicity against Rhynchophorus ferrugineus (red palm weevil) adults assessed as time required for 100% mortality at 2.5 ml/l for 2 min; type: functional
[18] = test system: Rhynchophorus ferrugineus; experiment: Contact toxicity against Rhynchophorus ferrugineus (red palm weevil) adults assessed as time required for 50% mortality at 3.5 ml/l for 2 min; type: functional
[19] = test system: Rhynchophorus ferrugineus; experiment: Contact toxicity against Rhynchophorus ferrugineus (red palm weevil) adults assessed as time required for 100% reversible knockdown at 2.5 ml/l for 2 min; type: functional
[20] = test system: Rhynchophorus ferrugineus; experiment: Contact toxicity against Rhynchophorus ferrugineus (red palm weevil) adults assessed as time required for 50% reversible knockdown at 2.5 ml/l for 2 min; type: functional
[21] = test system: Rhynchophorus ferrugineus; experiment: Pesticidal activity against Rhynchophorus ferrugineus (red palm weevil) cocoon assessed as mortality of emerged adult at low concentration administered by dipping for 3 min measured up to 1 week after emergence; type: functional, organism-based
[22] = test system: Rhynchophorus ferrugineus; experiment: Pesticidal activity against Rhynchophorus ferrugineus (red palm weevil) cocoon assessed as mortality at 4 ppm administered by dipping for 3 min measured at 72 hr post-treatment relative to control; type: functional
[23] = test system: Rhynchophorus ferrugineus; experiment: Pesticidal activity against Rhynchophorus ferrugineus (red palm weevil) cocoon assessed as mortality at 1.5 ppm administered by dipping for 3 min measured at 48 hr post-treatment relative to control; type: functional
[24] = test system: Rhynchophorus ferrugineus; experiment: Pesticidal activity against Rhynchophorus ferrugineus (red palm weevil) larvae assessed as mortality at 1 ppm, po at 24 hr post-treatment relative to control; type: functional
[25] = test system: Rhynchophorus ferrugineus; experiment: Pesticidal activity against Rhynchophorus ferrugineus (red palm weevil) larvae assessed as mortality at 1.5 ppm, po at 24 hr post-treatment relative to control; type: functional
[26] = test system: Rhynchophorus ferrugineus; experiment: Pesticidal activity against Rhynchophorus ferrugineus (red palm weevil) larvae assessed as mortality at 2 ppm, po at 24 hr post-treatment relative to control; type: functional
[27] = test system: Rhynchophorus ferrugineus; experiment: Pesticidal activity against Rhynchophorus ferrugineus (red palm weevil) larvae assessed as mortality at 0.5 ppm, po at 18 hr post-treatment relative to control; type: functional
[28] = test system: Rhynchophorus ferrugineus; experiment: Pesticidal activity against Rhynchophorus ferrugineus (red palm weevil) larvae assessed as mortality at 2 ppm, po at 18 hr post-treatment relative to control; type: functional
[29] = test system: Rhynchophorus ferrugineus; experiment: Pesticidal activity against adult Rhynchophorus ferrugineus (red palm weevil) assessed as mortality at 0.5 ppm, po at 114 hr post-treatment relative to control; type: functional
[30] = test system: Rhynchophorus ferrugineus; experiment: Pesticidal activity against Rhynchophorus ferrugineus (red palm weevil) larvae assessed as mortality at 500 ppm administered topically at 48 hr post-treatment; type: functional
[31] = test system: Rhynchophorus ferrugineus; experiment: Pesticidal activity against Rhynchophorus ferrugineus (red palm weevil) larvae assessed as mortality at 100 ppm administered topically at 36 hr post-treatment; type: functional
[32] = test system: Rhynchophorus ferrugineus; experiment: Pesticidal activity against Rhynchophorus ferrugineus (red palm weevil) larvae assessed as mortality at 300 ppm administered topically at 36 hr post-treatment; type: functional
[33] = test system: Rhynchophorus ferrugineus; experiment: Pesticidal activity Rhynchophorus ferrugineus (red palm weevil) larvae assessed as time required after hatching for 100% mortality at 3.5 ml/l administered topically measured up to 14 days relative to control; type: functional
[34] = test system: Rhynchophorus ferrugineus; experiment: Pesticidal activity Rhynchophorus ferrugineus (red palm weevil) larvae assessed as time required after hatching for 100% mortality at 2.5 ml/l administered topically measured up to 14 days relative to control; type: functional
[35] = test system: Rhynchophorus ferrugineus; experiment: Pesticidal activity against Rhynchophorus ferrugineus (red palm weevil) cocoons assessed as time required for total mortality at 1.5 ml/l administered by dipping for 10 secs; type: functional
[36] = test system: Rhynchophorus ferrugineus; experiment: Pesticidal activity against adult Rhynchophorus ferrugineus (red palm weevil) assessed as time required for 100% mortality at 3.5 ml/l administered topically; type: functional
[37] = test system: Rhynchophorus ferrugineus; experiment: Pesticidal activity against adult Rhynchophorus ferrugineus (red palm weevil) assessed as mortality at 300 ppm administered topically at 72 hr post-treatment; type: functional
[38] = test system: Rhynchophorus ferrugineus; experiment: Pesticidal activity against adult Rhynchophorus ferrugineus (red palm weevil) assessed as mortality at 100 ppm administered topically at 48 hr post-treatment; type: functional
[39] = test system: Rhynchophorus ferrugineus; experiment: Pesticidal activity against adult Rhynchophorus ferrugineus (red palm weevil) assessed as mortality at 500 ppm administered topically at 48 hr post-treatment; type: functional
[40] = test system: Rhynchophorus ferrugineus; experiment: Pesticidal activity against adult Rhynchophorus ferrugineus (red palm weevil) assessed as time required for reversible knockdown at 3.5 ml/l administered topically; type: functional

O=[N+]([O-])/N=C1\NCCN1Cc1ccc(Cl)nc1 [IMIDACLOPRID]
Activity [1]: 0% | Activity [2]: 100% | Activity [3]: 0% | Activity [4]: 0% | Activity [5]: 0% | Activity [6]: 66.7% | Activity [7]: 38.9% | Activity [8]: 100% | Activity [9]: 61.9% | Activity [10]: 94.4% | Activity [11]: 100% | Activity [12]: 72.2% | Activity [13]: 72.2% | Activity [14]: 72.2% | Time [15]: 7.2 days | Time [16]: 2.2 days | Time [17]: 13.1 days | Time [18]: 4.1 days | Time [19]: 7.1 days | Time [20]: 1.1 days | Activity [21]: inactive | Activity [22]: 44.4% | Activity [23]: 0% | Activity [24]: 0% | Activity [25]: 100% | Activity [26]: 100% | Activity [27]: 0% | Activity [28]: 72.2% | Activity [29]: 72.2% | Activity [30]: 72.2% | Activity [31]: 0% | Activity [32]: 0% | Time [33]: 4 days | Time [34]: 6 days | Time [35]: 10 days | Time [36]: 6.1 days | Activity [37]: 100% | Activity [38]: 72.2% | Activity [39]: 72.2% | Time [40]: 1 days
